Data reported in article PMC5971065 (ACS infectious diseases, 2017).

Key:
[1] = test system: A549, HEK-293, and J774A.1 cells; assay: Mammalian cytotoxicity; settings: positive control treatment
Mtb H37Rv = assay type: cell-based, Mycobacterium tuberculosis

Substance | cytotoxicity [1] | H37Rv MICKAN (Mtb H37Rv) [µg/mL]
Triton X-100 | most of the cells killed | –
kanamycin A | – | 1.25
